From ChEMBL document CHEMBL1134181, “Synthesis and biological evaluation of novel amides of polyunsaturated fatty acids with dopamine” (Bioorg Med Chem Lett, 2001)

Tests used:
Rattus norvegicus [1] = organism: Rattus norvegicus; test: Tested for percent immobility time in the ring test, expressed as % of control (p<0.01); assay type: functional
Rattus norvegicus [2] = test: Tested for decrease in rectal temperature 5 min after ip injection; assay type: functional
Rattus norvegicus [3] = organism: Rattus norvegicus; test: Tested to induce analgesia in hot plate test, expressed as percent of latency time (p<0.05); assay type: functional
Rattus norvegicus [4] = test: Tested for decrease in rectal temperature 10 min after ip injection; assay type: functional
Rattus norvegicus [5] = organism: Rattus norvegicus; test: Tested to induce analgesia in hot plate test, expressed as percent of latency time; assay type: functional
Cannabinoid receptor 1 = Cannabinoid receptor 1 (Rattus norvegicus, UniProt P20272); test: Concentration required to displace 0.4 nM [3H]SR-141,716A from CB1 receptor in rat brain preparations in the presence of 0.1 mM phenylmethyl sulfonyl fluoride; assay type: tissue-based
Chain of Cannabinoid receptor 1 (P20272 whole entry): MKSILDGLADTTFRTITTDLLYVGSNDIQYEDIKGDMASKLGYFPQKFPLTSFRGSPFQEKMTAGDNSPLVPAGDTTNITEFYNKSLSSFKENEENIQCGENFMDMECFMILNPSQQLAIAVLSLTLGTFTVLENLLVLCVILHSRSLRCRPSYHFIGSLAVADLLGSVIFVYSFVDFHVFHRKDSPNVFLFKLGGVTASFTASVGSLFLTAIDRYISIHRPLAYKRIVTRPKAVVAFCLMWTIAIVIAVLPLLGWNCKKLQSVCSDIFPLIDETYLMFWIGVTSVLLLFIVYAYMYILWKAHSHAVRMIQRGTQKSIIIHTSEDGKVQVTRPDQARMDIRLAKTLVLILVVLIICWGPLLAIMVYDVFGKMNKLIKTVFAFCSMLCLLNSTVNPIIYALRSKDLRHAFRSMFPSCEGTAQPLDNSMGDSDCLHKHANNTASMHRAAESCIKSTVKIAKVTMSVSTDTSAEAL

Row | Structure (SMILES) | Immobility time (Rattus norvegicus [1]) | Rectal temperature (Rattus norvegicus [2]) | Latency time (Rattus norvegicus [3]) | Rectal temperature (Rattus norvegicus [4]) | Latency time (Rattus norvegicus [5]) | Ki (Cannabinoid receptor 1)
1 | CC/C=C\C/C=C\C/C=C\C/C=C\C/C=C\CCCC(=O)NCCc1ccc(O)c(O)c1 | 658% | 1.64 °C | 135% |  |  | 
2 | CCCCC/C=C\C/C=C\C/C=C\CCCCCCC(=O)NCCc1ccc(O)c(O)c1 | 693% | 0.43 °C |  | 0.7 °C | 129% | 
3 | CC/C=C\C/C=C\C/C=C\C/C=C\CCCCC(=O)NCCc1ccc(O)c(O)c1 | 570% | 1.45 °C |  | 1.67 °C | 120% | 
4 | CC/C=C\C/C=C\C/C=C\C/C=C\C/C=C\C/C=C\CCC(=O)NCCc1ccc(O)c(O)c1 | 674% | 0.9 °C | 296% | 1.1 °C |  | 
5 | CC/C=C\C/C=C\C/C=C\C/C=C\C/C=C\CCCCCC(=O)NCCc1ccc(O)c(O)c1 | 610% | 1.35 °C | 144% | 1.82 °C |  | 1370 nM
6 | CCCCC/C=C\C/C=C\CC/C=C\CCCC(=O)NCCc1ccc(O)c(O)c1 | 528% | 0.5 °C |  | 0.4 °C | 162% | 1720 nM
7 | CCCCC/C=C\C/C=C\C/C=C\C/C=C\CCCC(=O)NCCO [ANANDAMIDE] | 750% | 1.93 °C |  | 2.53 °C | 165% | 
8 | CCCCC/C=C\C/C=C\C/C=C\C/C=C\CCCC(=O)NCCc1ccc(O)c(O)c1 [ARACHIDONOYL DOPAMINE] | 500% | 1.35 °C | 222% | 1.27 °C |  | 380 nM
